Experimental data published in ChEMBL document CHEMBL1201862, “PubChem BioAssay data set” (2004).
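These data come from cells grown in 96-well plates and exposed to compound for 48 hours at five concentrations. Abbreviation: GI50, concentration required for 50% inhibition of growth.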 Calls of active or inactive are those of the source. Rule as the data show it: active = GI50 up to about 1.1 µM and inactive = higher.

Legend:
Assay in all cases: inhibition of tumour cell growth, NCI panel, 48 h
XF498 = system: XF498
M19-MEL = system: M19-MEL
DLD-1 = system: DLD-1
SNB-78 = system: SNB-78
RXF 631 = system: RXF 631
DMS-273 = system: DMS-273
KM-20L2 = system: KM-20L2
DMS-114 = system: DMS-114
HOP-18 = system: HOP-18

Row | SMILES | GI50 (XF498) | GI50 (M19-MEL) | GI50 (DLD-1) | GI50 (SNB-78) | GI50 (RXF 631) | GI50 (DMS-273) | GI50 (KM-20L2) | GI50 (DMS-114) | GI50 (HOP-18)
1 | CCc1cccc(C)c1N1C(=O)C(=O)C(c2nc3ccccc3o2)/C(=N/NC(=S)NN)C1=O (stereo not given) | > 100 µM (inactive) | > 100 µM (inactive) | > 100 µM (inactive) | > 100 µM (inactive) | > 100 µM (inactive) | > 100 µM (inactive) | > 100 µM (inactive) | > 100 µM (inactive) | 
2 | N#CC(C(=O)/C(=N\NC(N)=O)C(C#N)c1ccc(Cl)cc1)c1ccc(Cl)cc1 (stereo not given) | > 100 µM (inactive) | > 100 µM (inactive) | > 100 µM (inactive) | > 100 µM (inactive) | > 100 µM (inactive) |  | > 100 µM (inactive) | > 100 µM (inactive) | > 100 µM (inactive)
3 | Nc1ncnc2c1ncn2CCOC(c1ccccc1)P(=O)(O)O (stereo not given) |  | > 100 µM (inactive) | > 100 µM (inactive) | > 100 µM (inactive) |  | > 100 µM (inactive) | > 100 µM (inactive) |  | 
4 | CCCC(=O)OCC(O)CO (stereo not given) |  | > 5000 µM (inactive) | > 5000 µM (inactive) | > 5000 µM (inactive) |  | 4040 µM (inactive) |  | > 5000 µM (inactive) | 1730 µM (inactive)
5 | COC(=O)c1nc(-c2ccc(Cl)c(Cl)c2)nc2ccc(Cl)cc12 |  | > 100 µM (inactive) | > 100 µM (inactive) | 6.59 µM (inactive) |  | 81.1 µM (inactive) | 21 µM (inactive) | 13.8 µM (inactive) | 
6 | C[Si](C)(C)/C=C\CCO | > 100 µM (inactive) | > 100 µM (inactive) | > 100 µM (inactive) | > 100 µM (inactive) | > 100 µM (inactive) | > 100 µM (inactive) | > 100 µM (inactive) | > 100 µM (inactive) | > 100 µM (inactive)
7 | CC(=O)OC12c3ccccc3C1CCCCCC21OCCCO1 (stereo not given) |  | > 100 µM (inactive) | > 100 µM (inactive) | > 100 µM (inactive) |  | > 100 µM (inactive) | > 100 µM (inactive) | > 100 µM (inactive) | 
8 | C/C(=C\CC/C=C(\C)CC/C=C(\C)CCC1SC1(C)C)CC/C=C(\C)CCC1OC1(C)C (stereo not given) | > 100 µM (inactive) | 71.4 µM (inactive) | > 100 µM (inactive) |  |  | > 100 µM (inactive) | > 100 µM (inactive) | 65.6 µM (inactive) | > 100 µM (inactive)
9 | COC(=O)C1=C(c2cc(OC)c(OC)c(OC)c2)OC(c2ccc3c(c2)OCO3)C1 (stereo not given) |  | 21.1 µM (inactive) | 23 µM (inactive) | 87.3 µM (inactive) |  | 25.4 µM (inactive) | 19.7 µM (inactive) | 13.9 µM (inactive) | > 100 µM (inactive)
10 | CNC(=S)NC1CCCCC1NC(=S)NC (stereo not given) | > 100 µM (inactive) | > 100 µM (inactive) | > 100 µM (inactive) | > 100 µM (inactive) | > 100 µM (inactive) | > 100 µM (inactive) | > 100 µM (inactive) | > 100 µM (inactive) | > 100 µM (inactive)
11 | O=C(N/C(=C\c1cccc([N+](=O)[O-])c1)c1nc2ccccc2[nH]1)c1ccccc1 | 27.7 µM (inactive) | 62.8 µM (inactive) | 55.5 µM (inactive) | 44.6 µM (inactive) |  | 69.2 µM (inactive) | 43.8 µM (inactive) | 26.7 µM (inactive) | 
12 | Cc1cc(C)nc(NS(=O)(=O)c2ccc(NC(=O)c3cccc4c(Nc5ccc(S(=O)(=O)N=C(N)N)cc5)c5ccccc5nc34)cc2)n1 | > 100 µM (inactive) | 22.1 µM (inactive) | 7.62 µM (inactive) | 8.3 µM (inactive) | 27.3 µM (inactive) | 19.7 µM (inactive) | 34.2 µM (inactive) |  | > 100 µM (inactive)
13 | CC(C)C(/C=C/c1ccc(Br)cc1)=N\NC(N)=O | > 100 µM (inactive) | 12.2 µM (inactive) | > 100 µM (inactive) | > 100 µM (inactive) |  | > 100 µM (inactive) | > 100 µM (inactive) | > 100 µM (inactive) | 
14 | CCOc1ccc2[nH]c3c(C)c4ccncc4c(C)c3c2c1 | 0.984 µM (active) | 1.51 µM (inactive) | 0.561 µM (active) | 1.34 µM (inactive) | 1.27 µM (inactive) | 0.394 µM (active) | 1.08 µM (active) | 1.34 µM (inactive) | 
15 | CN(C)C(=O)NC(=S)N(C)C | > 100 µM (inactive) | > 100 µM (inactive) | > 100 µM (inactive) | > 100 µM (inactive) |  | > 100 µM (inactive) | > 100 µM (inactive) | > 100 µM (inactive) | > 100 µM (inactive)
16 | CC(CC(=O)N1C(=O)C(C)(C)[C@@H](O)[C@H]1CC(C)C(Cl)(Cl)Cl)C(Cl)(Cl)Cl (stereo not given in full) | > 100 µM (inactive) | > 100 µM (inactive) | > 100 µM (inactive) | > 100 µM (inactive) |  | > 100 µM (inactive) | > 100 µM (inactive) | > 100 µM (inactive) | > 100 µM (inactive)
17 | COc1ccc2c(c1[N+](=O)[O-])CC[C@@H]1[C@@H]2CC[C@]2(C)C(=O)CC[C@@H]12 | 20.4 µM (inactive) | > 25 µM (inactive) | > 25 µM (inactive) | 24.7 µM (inactive) |  | > 25 µM (inactive) | > 25 µM (inactive) | 18.4 µM (inactive) | > 25 µM (inactive)
18 | CN(C)CC1CCC/C1=N\O (stereo not given) |  | > 100 µM (inactive) | > 100 µM (inactive) | > 100 µM (inactive) |  | > 100 µM (inactive) | > 100 µM (inactive) |  | > 100 µM (inactive)
19 | CC(C)c1ccc(C2NC(S)=NC3=C2c2ccccc2C3=O)cc1 (stereo not given) | 32.4 µM (inactive) | 38.9 µM (inactive) | 48.5 µM (inactive) |  | 54 µM (inactive) | 30 µM (inactive) | 25.6 µM (inactive) | 21.3 µM (inactive) | 
20 | C1CCNCC1.S=C(S)N1CCCCC1 |  | 0.685 µM (active) |  | 100 µM (inactive) | 4.43 µM (inactive) |  | 100 µM (inactive) | 0.24 µM (active) | 100 µM (inactive)
21 | CCOc1ccc(C2=NN(CC)C(=O)C(C3C(=O)N(c4ccccc4)N=C3C)C2)cc1 (stereo not given) | > 100 µM (inactive) | > 100 µM (inactive) | > 100 µM (inactive) | > 100 µM (inactive) |  | > 100 µM (inactive) | > 100 µM (inactive) | > 100 µM (inactive) | > 100 µM (inactive)
22 | Cc1cn(C2CC(OC3CCCCO3)C(CO)O2)c(=O)[nH]c1=O (stereo not given) | > 100 µM (inactive) | > 100 µM (inactive) | > 100 µM (inactive) | > 100 µM (inactive) |  | > 100 µM (inactive) | > 100 µM (inactive) |  | > 100 µM (inactive)
23 | Cc1ccc(C2=C(c3ccc(C)cc3)C(c3ccc(C)cc3)=C(c3ccc(C)cc3)C2=O)cc1 | > 100 µM (inactive) | > 100 µM (inactive) | > 100 µM (inactive) | > 100 µM (inactive) | > 100 µM (inactive) |  | > 100 µM (inactive) |  | > 100 µM (inactive)
24 | CC(C)(C)NC(=O)NC12CC3CC(CC(F)(C3)C1)C2 | > 100 µM (inactive) | > 100 µM (inactive) | > 100 µM (inactive) | > 100 µM (inactive) | > 100 µM (inactive) | > 100 µM (inactive) | > 100 µM (inactive) | > 100 µM (inactive) | 
25 | O=C(CCc1n[nH]c(=S)o1)Nc1cc(Cl)ccc1Cl |  | > 100 µM (inactive) | 79.3 µM (inactive) | > 100 µM (inactive) |  | 19.1 µM (inactive) | 48.2 µM (inactive) |  | > 100 µM (inactive)
26 | CCc1ccc(/C(C)=N/NC(N)=S)cc1 | 0.569 µM (active) | > 100 µM (inactive) |  | > 100 µM (inactive) |  |  | > 100 µM (inactive) | 48.9 µM (inactive) | > 100 µM (inactive)
27 | Cc1nccc2c1cnc1ccnn12 |  | > 100 µM (inactive) | > 100 µM (inactive) | > 100 µM (inactive) | > 100 µM (inactive) | > 100 µM (inactive) | > 100 µM (inactive) | > 100 µM (inactive) | 
28 | CC12CC3C(CC1SCC(=O)O2)C3(C)C (stereo not given) | > 100 µM (inactive) | > 100 µM (inactive) | > 100 µM (inactive) | > 100 µM (inactive) |  | > 100 µM (inactive) |  | > 100 µM (inactive) | > 100 µM (inactive)
